One series concerns NCI-H460. The series can be described thus: Growth inhibition of human NCI-H460 cells assessed as reduction in cell viability at 100 ug/ml by SRB colorimetric assay relative to control. The series is classed as functional. Conditions: read-out: GI. A general note: The SRB assay estimates cell density from bound dye.
The test system of the next series is A-375. Briefly: Growth inhibition of human A-375 cells assessed as reduction in cell viability at 100 ug/ml by SRB colorimetric assay relative to control. Conditions: read-out: GI. The series is classed as functional.
The subject of another series is MDA-MB-231. Briefly: Growth inhibition of human MDA-MB-231 cells assessed as reduction in cell viability at 100 ug/ml by SRB colorimetric assay relative to control. Type of series: functional. Conditions: read-out: GI.
For another series, the system named is BT-474. Briefly: Growth inhibition of human BT-474 cells assessed as reduction in cell viability at 100 ug/ml by SRB colorimetric assay relative to control. Conditions: read-out: GI. Type of series: functional.
For another series, the system named is HepG2. Briefly: Growth inhibition of human HepG2 cells assessed as reduction in cell viability at 100 ug/ml by SRB colorimetric assay relative to control. The series is classed as functional. Conditions: read-out: GI.
A further series concerns Caco-2. The series can be described thus: Growth inhibition of human Caco-2 cells assessed as reduction in cell viability at 100 ug/ml by SRB colorimetric assay relative to control. Type of series: functional. Conditions: read-out: GI.
The next series deals with HNO 97 cell line. The series can be described thus: Growth inhibition of human HNO 97 cell line assessed as reduction in cell viability at 100 ug/ml by SRB colorimetric assay relative to control. Conditions: read-out: GI. Type of series: functional.
A further series concerns MCF7. The series can be described thus: Growth inhibition of human MCF7 cells assessed as reduction in cell viability at 100 ug/ml by SRB colorimetric assay relative to control. The series is classed as functional. Conditions: read-out: GI.
A further series concerns MG-63. Briefly: Growth inhibition of human MG-63 cells assessed as reduction in cell viability at 100 ug/ml by SRB colorimetric assay relative to control. The series is classed as functional. Conditions: read-out: GI.
The subject of the next series is HCT-116. The series can be described thus: Growth inhibition of human HCT-116 cells assessed as reduction in cell viability at 100 ug/ml by SRB colorimetric assay relative to control. The series is classed as functional. Conditions: read-out: GI.
Another series deals with PC-3. Briefly: Growth inhibition of human PC-3 cells assessed as reduction in cell viability at 100 ug/ml by SRB colorimetric assay relative to control. The series is classed as functional. Conditions: read-out: GI.
A further series has as its system A549. The series can be described thus: Growth inhibition of human A549 cells assessed as reduction in cell viability at 100 ug/ml by SRB colorimetric assay relative to control. The series is classed as functional. Conditions: read-out: GI.
The nature of series [1]: Growth inhibition of human Oral epithelial cell assessed as reduction in cell viability at 100 ug/ml by SRB colorimetric assay relative to control. Type of series: toxicity, cell-based. Conditions: oral epithelial cells, at 100 µg/mL, read-out: GI.
The test system of a further series is Huh-7. The series can be described thus: Growth inhibition of human Huh-7 cells assessed as reduction in cell viability at 100 ug/ml by SRB colorimetric assay relative to control. Type of series: functional. Conditions: read-out: GI.

For `CN(C)c1ccc(C2NC(N)=Nc3nc4ccccc4n32)cc1` (centres undefined), the inhibition of growth at 100 µg/mL was determined as 70.9% in the series with NCI-H460; 68.5% in the series on A-375; 61% with MDA-MB-231; 60.1% in the series on BT-474; 78.8% in the series on HepG2; 64% with Caco-2. Moreover, the inhibition of growth at 100 µg/mL in the series with HNO 97 cell line came to 80.8%; with MCF7 it was 63.2%; in the series with MG-63 it was 58%; in the series on HCT-116 it was 64.1%; in the series with PC-3 it was 57.5%; in the series on A549, 67.7%. In addition, the inhibition of growth at 100 µg/mL in the series with Huh-7 amounted to 70%. In addition, the inhibition at 100 ug/ml in [1] stood at 14.2%.

Take `NC1=NC(c2ccccc2)n2c(nc3ccccc32)N1` (centres undefined): the inhibition of growth at 100 µg/mL is 65.3% in the series with NCI-H460; 63.4% in the series on A-375; 68.2% in the series with MDA-MB-231; 51.4% in the series with BT-474; 66.6% in the series on HepG2; 61.7% with Caco-2. For the same molecule, the inhibition of growth at 100 µg/mL in the series with HNO 97 cell line amounted to 78.1%; in the series on MCF7 it was 60.2%; in the series with MG-63, 56%; in the series on HCT-116, 61.1%; with PC-3 it was 72.7%; with A549, 59.1%. Besides, the inhibition of growth at 100 µg/mL with Huh-7 turned out to be 68.1%. For the same molecule, the inhibition at 100 ug/ml in series [1] was found to be 24.4%.

With `COc1cc(C2NC(N)=Nc3nc4ccccc4n32)ccc1OCc1ccccc1` (centres undefined), the inhibition of growth at 100 µg/mL in the series with NCI-H460 is 30.4%; in the series with A-375 it was 45.1%; in the series with MDA-MB-231 it was 51.7%; in the series with BT-474 it was 1%; in the series with HepG2, 41.3%; with Caco-2 it was 40.1%. In addition, the inhibition of growth at 100 µg/mL in the series with HNO 97 cell line is 63.2%; in the series with MCF7 it was 48.9%; in the series with MG-63, 13.1%; with HCT-116, 39%; with PC-3, 44.6%; with A549, 30.5%. In the series on Huh-7, the inhibition of growth at 100 µg/mL was 26.9%. Further, the inhibition at 100 ug/ml in series [1] was 21%.

Regarding `NC1=Nc2nc3ccccc3n2C(c2cccc3ccccc23)N1` (centres undefined), the inhibition of growth at 100 µg/mL in the series on NCI-H460 is 61.1%; in the series with A-375, 52.8%; in the series on MDA-MB-231, 76.2%; in the series on BT-474, 61.4%; in the series with HepG2, 59%; with Caco-2, 59.9%. The inhibition of growth at 100 µg/mL in the series on HNO 97 cell line turned out to be 61.1%; in the series on MCF7 it was 53.7%; with MG-63 it was 58%; in the series with HCT-116, 55.7%; with PC-3 it was 59%; with A549 it was 54.4%. Besides, in the series with Huh-7, the inhibition of growth at 100 µg/mL came out at 58.7%. Also, the inhibition at 100 ug/ml in series [1] came out at 45.9%.

In the case of `NC1=NC(c2cccnc2)n2c(nc3ccccc32)N1` (centres undefined), the inhibition of growth at 100 µg/mL in the series on NCI-H460 was found to be 58.1%; in the series on A-375 it was 56%; with MDA-MB-231, 30.5%; in the series on BT-474, 0.93%; in the series with HepG2 it was 67.8%; in the series with Caco-2 it was 53.7%. For the same molecule, the inhibition of growth at 100 µg/mL in the series with HNO 97 cell line was 64.8%; in the series with MCF7, 60.7%; with MG-63 it was 42.4%; in the series with HCT-116 it was 65.2%; in the series on PC-3 it was 52.2%; in the series with A549, 55.6%. Further, in the series on Huh-7, the inhibition of growth at 100 µg/mL is 57.2%. Besides, in series [1], the inhibition at 100 ug/ml turned out to be 52.7%.

Turning to `NC1=Nc2nc3ccccc3n2C(c2cccc(Cl)c2Cl)N1` (centres undefined), the inhibition of growth at 100 µg/mL with NCI-H460 is 73.1%; in the series on A-375, 68.7%; in the series with MDA-MB-231, 75.1%; in the series with BT-474, 60.4%; with HepG2, 72.5%; in the series on Caco-2 it was 61.1%. Moreover, the inhibition of growth at 100 µg/mL with HNO 97 cell line amounted to 78.6%; in the series with MCF7, 63.6%; in the series on MG-63, 63.2%; in the series on HCT-116, 59.6%; in the series with PC-3 it was 71.5%; in the series with A549, 67.8%. Besides, in the series on Huh-7, the inhibition of growth at 100 µg/mL is 67%. The inhibition at 100 ug/ml in series [1] was 38.4%.

In the case of `Cc1ccc(C2NC(N)=Nc3nc4ccccc4n32)o1` (centres undefined), the inhibition of growth at 100 µg/mL in the series on NCI-H460 turned out to be 61.6%; with A-375, 58.5%; in the series with MDA-MB-231, 27.4%; in the series on BT-474 it was 13.2%; with HepG2, 61.5%; in the series on Caco-2, 56.2%. Besides, the inhibition of growth at 100 µg/mL was 57.5% with HNO 97 cell line; 51.6% with MCF7; 50.6% in the series on MG-63; 60.9% in the series on HCT-116; 55.2% in the series on PC-3; 56.2% with A549. The inhibition of growth at 100 µg/mL in the series with Huh-7 is 50%. Also, the inhibition at 100 ug/ml in series [1] came to 59.7%.

In the case of `NC1=Nc2nc3ccccc3n2C(c2cccs2)N1` (centres undefined), the inhibition of growth at 100 µg/mL in the series with NCI-H460 turned out to be 58.8%; with A-375, 56.4%; in the series with MDA-MB-231, 38.7%; in the series on BT-474, 5.76%; with HepG2, 64.9%; in the series on Caco-2, 62.9%. Further, the inhibition of growth at 100 µg/mL came to 71.8% with HNO 97 cell line; 56.2% in the series on MCF7; 49.9% in the series on MG-63; 64.4% in the series with HCT-116; 48% with PC-3; 61.4% with A549. In the series on Huh-7, the inhibition of growth at 100 µg/mL is 65%. Also, in [1], the inhibition at 100 ug/ml is 59.6%.

With `NC1=Nc2nc3ccccc3n2C(c2c[nH]c3ccccc23)N1` (centres undefined), the inhibition of growth at 100 µg/mL in the series with NCI-H460 was found to be 63.5%; in the series on A-375, 69.2%; with MDA-MB-231, 34.3%; with BT-474, 34.4%; in the series on HepG2, 69.2%; in the series with Caco-2, 61.7%. In addition, the inhibition of growth at 100 µg/mL in the series with HNO 97 cell line was determined as 75.3%; with MCF7, 56.5%; in the series on MG-63 it was 56.2%; in the series with HCT-116, 64.3%; in the series with PC-3 it was 54.2%; with A549 it was 58.8%. Also, in the series with Huh-7, the inhibition of growth at 100 µg/mL was 65.3%. Also, the inhibition at 100 ug/ml in [1] was 51.3%.

With `NC1=Nc2nc3ccccc3n2C(c2ccc([N+](=O)[O-])cc2)N1` (centres undefined), the inhibition of growth at 100 µg/mL is 74.7% in the series with NCI-H460; 58.6% in the series on A-375; 74.6% with MDA-MB-231; 60.2% with BT-474; 74.3% in the series with HepG2; 65.9% in the series on Caco-2. The inhibition of growth at 100 µg/mL was 70.4% with HNO 97 cell line; 61.2% with MCF7; 53.4% in the series on MG-63; 61.3% in the series on HCT-116; 61.2% in the series on PC-3; 65.6% with A549. For the same molecule, the inhibition of growth at 100 µg/mL with Huh-7 worked out at 56.9%. Further, the inhibition at 100 ug/ml in series [1] is 40.3%.

Take `NC1=Nc2nc3ccccc3n2C(c2ccc3ccccc3c2)N1` (centres undefined): the inhibition of growth at 100 µg/mL stood at 65% in the series on NCI-H460; 44.1% in the series on A-375; 66.6% in the series with MDA-MB-231; 55.3% with BT-474; 45% in the series on HepG2; 61% in the series with Caco-2. For the same molecule, the inhibition of growth at 100 µg/mL in the series on HNO 97 cell line was found to be 57.3%; with MCF7 it was 48.8%; with MG-63 it was 58.6%; in the series on HCT-116, 50.2%; in the series with PC-3, 54.8%; in the series with A549, 56.7%. In addition, in the series on Huh-7, the inhibition of growth at 100 µg/mL amounted to 54.6%. In addition, the inhibition at 100 ug/ml in series [1] turned out to be 55.7%.

For the origin of these results see ChEMBL document CHEMBL5625190, “Novel fused imidazotriazines acting as promising top. II inhibitors and apoptotic inducers with greater selectivity against head and neck tumors: Design, synthesis, and biological assessments” (Eur J Med Chem, 2023).
